Results published in US20260258044A1, “PIPERIDINYL-METHYL-PURINE AMINE FUMARIC ACID SALTS, CRYSTALLINE FORMS, AND THEIR USE IN TREATING MEDICAL DISEASES AND CONDITIONS” (K36 Therapeutics, Inc., priority 2022, published 2026).
“Also recorded” adds a separate entry of the source.

Legend:
Type in all cases: physicochemical
[1] = water solubility of the crystalline solid; settings: 37° C.
[2] = hygroscopicity by dynamic vapor sorption; settings: transitioned from 2% to 95% relative humidity
Experimental: Dynamic vapor sorption was performed using a Q5000SA. The sample (5-15 mg) was loaded into a metallic quartz sample pan, suspended from a microbalance, and exposed to a humidified stream of nitrogen gas. Weight changes were relative to a matching empty reference pan opposite the sample, suspended from the microbalance. The sample was held for a minimum of 10 min at each humidity level and only progressed to the next humidity level if there was <0.002% change in weight between measurements (interval: 5 s) or 60 min had elapsed. The following program was used: • 1. Equilibration at 50% RH • 2. 50% to 2% RH (50%, 40%, 30%, 20%, 10%, and 2% RH) • 3. 2% to 95% RH (2%, 10%, 20%, 30%, 40%, 50%, 60%, 70%, 80%, 90%, and 95% RH) • 4. 95% to 2% RH (95%, 80%, 70%, 60%, 50%, 40%, 30%, 20%, 10%, and 2% RH) • 5. 2% to 50% RH (2%, 10%, 20%, 30%, 40%, and 50% RH).

[3] = accelerated stability study (HPLC and XRPD of recovered salts); settings: for HPLC Purity (Area %) After Study / XRPD After Study: after one week at 75% relative humidity, 40° C.; for HPLC Purity (Area %) Before Study: before storage
Experimental: An accelerated stability study was conducted on crystalline Form 1 (prepared according to Procedure 2 of Example 1), Form 2, Form 3 (prepared according to Procedure 1 of Example 3), and Form 4 of (S)-1-((R)-3-amino-1-(4-((6-amino-9H-purin-9-yl)methyl)-6-(2,5-difluoro-4-methoxyphenyl) pyridin-3-yl)piperidin-3-yl)-2,2-difluoroethan-1-ol fumaric acid salt. Approximately 12 mg of each solid was placed into separate 4-mL vials, and then the vials were covered with a Kimwipe. The vials were stored for one week inside a stability chamber producing a relative humidity of 75% at 40° C.

Compound | water solubility ([1]; after 30 minutes) | water solubility ([1]; after 24 hours) | increase in weight [2] | HPLC Purity (Area %) After Study [3] | XRPD After Study [3] | HPLC Purity (Area %) Before Study [3] | increase in weight as molar equivalents of water [2]
COc1cc(F)c(-c2cc(Cn3cnc4c(N)ncnc43)c(N3CCC[C@](N)([C@H](O)C(F)F)C3)cn2)cc1F.O=C(O)/C=C/C(=O)O [Form 1, (S)-1-((R)-3-amino-1-(4-((6-amino-9H-purin-9-yl)methyl)-6-(2,5-difluoro-4-methoxyphenyl)pyridin-3-yl)piperidin-3-yl)-2,2-difluoroethan-1-ol Fumaric Acid Salt] | 300 µg/mL | 1400 µg/mL | 1.5% | 99.52 Area % | No change; also recorded: Unchanged | 99.50 Area % | 
COc1cc(F)c(-c2cc(Cn3cnc4c(N)ncnc43)c(N3CCC[C@](N)([C@H](O)C(F)F)C3)cn2)cc1F.O=C(O)/C=C/C(=O)O [Form 2, (S)-1-((R)-3-amino-1-(4-((6-amino-9H-purin-9-yl)methyl)-6-(2,5-difluoro-4-methoxyphenyl)pyridin-3-yl)piperidin-3-yl)-2,2-difluoroethan-1-ol Fumaric Acid Salt] | 2200 µg/mL | 1100 µg/mL |  | 99.49 Area % | Slight shifting of peaks at higher diffraction angles (2θ); also recorded: Slight Shifting of Certain | 99.51 Area % | 
COc1cc(F)c(-c2cc(Cn3cnc4c(N)ncnc43)c(N3CCC[C@](N)([C@H](O)C(F)F)C3)cn2)cc1F.O=C(O)/C=C/C(=O)O [Form 3, (S)-1-((R)-3-amino-1-(4-((6-amino-9H-purin-9-yl)methyl)-6-(2,5-difluoro-4-methoxyphenyl)pyridin-3-yl)piperidin-3-yl)-2,2-difluoroethan-1-ol Fumaric Acid Salt] | 800 µg/mL | 700 µg/mL | 5.1% | 99.56 Area % | Increased crystallinity; also recorded: Higher Crystallinity | 99.58 Area % | approximately 1.8 molar equivalents
COc1cc(F)c(-c2cc(Cn3cnc4c(N)ncnc43)c(N3CCC[C@](N)([C@H](O)C(F)F)C3)cn2)cc1F.O=C(O)/C=C/C(=O)O [Form 4, (S)-1-((R)-3-amino-1-(4-((6-amino-9H-purin-9-yl)methyl)-6-(2,5-difluoro-4-methoxyphenyl)pyridin-3-yl)piperidin-3-yl)-2,2-difluoroethan-1-ol Fumaric Acid Salt] | 700 µg/mL | 600 µg/mL | 5.5% | 99.59 Area % | Conversion to Form 3 | 99.56 Area % | approximately 2.0 molar equivalents
